The record followed here is patent US20080253960A1, “Lipoprotein-Based Nanoplatforms” (The Trustees of the University of Pennsylvania Center for …, priority 2004, published 2008).

Assay [1] deals with HepG2 tumor cells. Kind of assay: laser scanning confocal microscopy of r-(Pyro-CE)-LDL uptake. The conditions noted are these: 20 μg/mL r-(Pyro-CE)-LDL, or same amount of Pyro-CE without reconstitution into LDL. The format is cell-based, human. How it is done:
To visualize LDLR-mediated internalization of these NIRF/PDT agents into tumor cells, we performed laser scanning confocal microscopy studies on r-(Pyro-CE)-LDL in HepG2 tumor cells. Four sets of experiments were performed on a Leica TCS SPII laser scanning confocal microscope (Heidelberg, Germany). […] In a control experiment, HepG2 cells were incubated with native LDL but without the photosensitizer at 37° C. for 3 h to determine any possible background fluorescence. […] To determine the specificity of this LDL based photosensitizer toward LDL receptors, HepG2 cells were incubated with either a 25-fold excess of unlabeled LDL in addition to the 20 μg/mL r-(Pyro-CE)-LDL or with the same amount of Pyro-CE but without reconstitution of this agent into LDL.

Assay [2] concerns HepG2 tumor cells. Nature of the assay: confocal microscopy of LDLR-specific uptake of r-SiPcBOA-LDL. The format is cell-based, human. The conditions noted are these: same amount of dye alone as in r-SiPcBOA-LDL.
Protocol: Confocal Microscopy Studies: For confocal microscopy studies, HepG2 cells were grown in 4-well Lab-Tek chamber slides (Naperville, Ill.) at a density of 40,000 cells/well. Experiments were started, after two quick washes with pre-incubation medium (medium with 0.8% (w/v) BSA instead of FBS), by the addition of pre-incubation medium containing the indicated amounts of r-SiPcBOA-LDL/AcLDL and/or unlabeled LDL. After a 4 h incubation at 37° C., the cells were washed three times with ice-cold PBS and fixed for 15 minutes with 3% formaldehyde in PBS at room temperature. Then the chamber slides were mounted and sealed for confocal microscopy analysis. Confocal microscopy was performed with a Leica TCS SPII laser scanning confocal microscope (Heidelberg, Germany). Filter settings were 633 nm for excitation and 638-800 nm for emission. Confocal Microscopy Studies of the LDLR-Specific Uptake: To visualize LDLR-mediated internalization of r-SiPcBOA-LDL, we performed laser scanning confocal microscopy studies on HepG2 tumor cells. […] To determine the specificity of this r-SiPcBOA-LDL toward LDLR, three sets of control experiments were performed.

On to “pyropheophorbide cholesterol oleate [Pyro-CE]”, for which the “fluorescence signal (confocal)” value in the assay with HepG2 tumor cells [1] is given as “No fluorescence”.
On to “tetra-t-butyl silicon phthalocyanine bisoleate [(tBu)4SiPcBOA]”, for which the “fluorescence signal (confocal)” value with HepG2 tumor cells [2] is listed as “did not lead to any observable fluorescence”.
